Measurements: PubChem BioAssay (NCI)
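In this assay, cells in 96-well plates receive the compound at five concentrations for 48 hours. Endpoints are linearly interpolated between the surrounding concentrations. At the GI50, growth is halved. TGI: total growth inhibition.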

Tests used:
Experiment in all cases: NCI-60 cell line screen, 48 h
OVCAR-8 ovarian = system: OVCAR-8 ovarian
HS 578T breast = system: HS 578T breast
A498 renal = system: A498 renal
NCI-H522 lung = system: NCI-H522 lung
HCT-15 colon = system: HCT-15 colon
KM12 colon = system: KM12 colon
PC-3 prostate = system: PC-3 prostate
BT-549 breast = system: BT-549 breast
SR leukemia = system: SR leukemia
OVCAR-3 ovarian = system: OVCAR-3 ovarian
K-562 leukemia = system: K-562 leukemia
EKVX NSCLC = system: EKVX NSCLC
TK-10 renal = system: TK-10 renal
IGROV1 ovarian = system: IGROV1 ovarian
RXF 393 renal = system: RXF 393 renal
MOLT-4 leukemia = system: MOLT-4 leukemia
MDA-MB-435 = system: MDA-MB-435
HL-60(TB) leukemia = system: HL-60(TB) leukemia
OVCAR-5 ovarian = system: OVCAR-5 ovarian
CCRF-CEM leukemia = system: CCRF-CEM leukemia
SK-MEL-2 melanoma = system: SK-MEL-2 melanoma
NCI/ADR-RES ovarian = system: NCI/ADR-RES ovarian
COLO 205 colon = system: COLO 205 colon
MDA-MB-231 breast = system: MDA-MB-231 breast
786-0 renal = system: 786-0 renal
UO-31 renal = system: UO-31 renal
T-47D breast = system: T-47D breast
HCC-2998 colon = system: HCC-2998 colon
NCI-H226 lung = system: NCI-H226 lung
SF-268 CNS = system: SF-268 CNS
M14 melanoma = system: M14 melanoma
SK-OV-3 ovarian = system: SK-OV-3 ovarian
LOX IMVI melanoma = system: LOX IMVI melanoma
MCF7 breast = system: MCF7 breast
SK-MEL-28 melanoma = system: SK-MEL-28 melanoma
NCI-H23 lung = system: NCI-H23 lung
SF-295 CNS = system: SF-295 CNS
SN12C renal = system: SN12C renal
U251 CNS = system: U251 CNS
DU-145 prostate = system: DU-145 prostate
MALME-3M melanoma = system: MALME-3M melanoma
SK-MEL-5 melanoma = system: SK-MEL-5 melanoma
RPMI-8226 leukemia = system: RPMI-8226 leukemia
SW-620 colon = system: SW-620 colon
HOP-92 NSCLC = system: HOP-92 NSCLC
HCT-116 colon = system: HCT-116 colon
HT29 colon = system: HT29 colon
NCI-H460 lung = system: NCI-H460 lung
A549 NSCLC = system: A549 NSCLC
UACC-62 melanoma = system: UACC-62 melanoma
ACHN renal = system: ACHN renal
OVCAR-4 ovarian = system: OVCAR-4 ovarian
SNB-75 CNS = system: SNB-75 CNS
SF-539 CNS = system: SF-539 CNS
UACC-257 melanoma = system: UACC-257 melanoma
CAKI-1 renal = system: CAKI-1 renal
HOP-62 NSCLC = system: HOP-62 NSCLC

COc1cc(-c2cc(-c3ccc(N(C)C)cc3)nc(N3CCOCC3)c2C#N)cc(OC)c1OC
GI50 (OVCAR-8 ovarian): 1.27 µM | TGI (OVCAR-8 ovarian): > 100 µM | GI50 (HS 578T breast): 22.1 µM | TGI (HS 578T breast): > 100 µM | GI50 (A498 renal): 0.768 µM | TGI (A498 renal): 23.7 µM | GI50 (NCI-H522 lung): 0.286 µM | GI50 (HCT-15 colon): 0.68 µM | TGI (HCT-15 colon): 44.1 µM | GI50 (KM12 colon): 1.34 µM | TGI (KM12 colon): > 100 µM | GI50 (PC-3 prostate): 2.06 µM | TGI (PC-3 prostate): > 100 µM | GI50 (BT-549 breast): 0.471 µM | TGI (BT-549 breast): > 100 µM | GI50 (SR leukemia): 0.26 µM | TGI (SR leukemia): 4.04 µM | GI50 (OVCAR-3 ovarian): 12.9 µM | TGI (OVCAR-3 ovarian): > 83.2 µM | GI50 (K-562 leukemia): 0.961 µM | TGI (K-562 leukemia): > 24.6 µM | GI50 (EKVX NSCLC): 0.988 µM | TGI (EKVX NSCLC): > 100 µM | GI50 (TK-10 renal): 2.51 µM | TGI (TK-10 renal): > 100 µM | GI50 (IGROV1 ovarian): 0.727 µM | TGI (IGROV1 ovarian): 70 µM | GI50 (RXF 393 renal): 0.134 µM | TGI (RXF 393 renal): 3.85 µM | GI50 (MOLT-4 leukemia): 1.38 µM | TGI (MOLT-4 leukemia): > 100 µM | GI50 (MDA-MB-435): 0.843 µM | TGI (MDA-MB-435): 13.4 µM | GI50 (HL-60(TB) leukemia): 0.468 µM | GI50 (OVCAR-5 ovarian): 0.248 µM | TGI (OVCAR-5 ovarian): > 100 µM | GI50 (CCRF-CEM leukemia): 1.21 µM | TGI (CCRF-CEM leukemia): > 100 µM | GI50 (SK-MEL-2 melanoma): 1.14 µM | TGI (SK-MEL-2 melanoma): 17.9 µM | GI50 (NCI/ADR-RES ovarian): 0.246 µM | TGI (NCI/ADR-RES ovarian): > 91.4 µM | GI50 (COLO 205 colon): 0.355 µM | TGI (COLO 205 colon): 24.2 µM | GI50 (MDA-MB-231 breast): 0.463 µM | TGI (MDA-MB-231 breast): > 33.5 µM | GI50 (786-0 renal): 0.835 µM | TGI (786-0 renal): 13.4 µM | GI50 (UO-31 renal): 6.85 µM | TGI (UO-31 renal): > 60.8 µM | GI50 (T-47D breast): 0.529 µM | TGI (T-47D breast): > 22.5 µM | GI50 (HCC-2998 colon): 2.53 µM | TGI (HCC-2998 colon): 21.3 µM | GI50 (NCI-H226 lung): 0.27 µM | TGI (NCI-H226 lung): 0.995 µM | GI50 (SF-268 CNS): 3.73 µM | TGI (SF-268 CNS): > 100 µM | GI50 (M14 melanoma): 0.322 µM | TGI (M14 melanoma): 1.47 µM | GI50 (SK-OV-3 ovarian): 1.62 µM | TGI (SK-OV-3 ovarian): > 100 µM | GI50 (LOX IMVI melanoma): 0.0676 µM | TGI (LOX IMVI melanoma): 0.225 µM | GI50 (MCF7 breast): 1.24 µM | TGI (MCF7 breast): > 55.2 µM | GI50 (SK-MEL-28 melanoma): 0.433 µM | TGI (SK-MEL-28 melanoma): 5.68 µM | GI50 (NCI-H23 lung): 6.66 µM | TGI (NCI-H23 lung): > 100 µM | GI50 (SF-295 CNS): 0.381 µM | TGI (SF-295 CNS): 1.11 µM | GI50 (SN12C renal): 0.46 µM | TGI (SN12C renal): > 100 µM | GI50 (U251 CNS): 1.96 µM | TGI (U251 CNS): > 84.6 µM | GI50 (DU-145 prostate): 9.12 µM | TGI (DU-145 prostate): > 100 µM | GI50 (MALME-3M melanoma): 1.55 µM | TGI (MALME-3M melanoma): > 49.1 µM | GI50 (SK-MEL-5 melanoma): 0.171 µM | TGI (SK-MEL-5 melanoma): 0.729 µM | GI50 (RPMI-8226 leukemia): 0.0677 µM | TGI (RPMI-8226 leukemia): 5.08 µM | GI50 (SW-620 colon): 2.02 µM | TGI (SW-620 colon): > 100 µM | GI50 (HOP-92 NSCLC): 1.42 µM | TGI (HOP-92 NSCLC): > 29.9 µM | GI50 (HCT-116 colon): 0.388 µM | TGI (HCT-116 colon): > 100 µM | GI50 (HT29 colon): 0.385 µM | TGI (HT29 colon): > 36 µM | GI50 (NCI-H460 lung): 0.289 µM | TGI (NCI-H460 lung): > 61.6 µM | GI50 (A549 NSCLC): 1.25 µM | TGI (A549 NSCLC): > 100 µM | GI50 (UACC-62 melanoma): 0.628 µM | TGI (UACC-62 melanoma): 1.71 µM | GI50 (ACHN renal): 1.02 µM | TGI (ACHN renal): > 100 µM | GI50 (OVCAR-4 ovarian): 21.4 µM | TGI (OVCAR-4 ovarian): > 100 µM | GI50 (SNB-75 CNS): 13.3 µM | TGI (SNB-75 CNS): > 76.9 µM | GI50 (SF-539 CNS): 2.22 µM | TGI (SF-539 CNS): > 54.8 µM | GI50 (UACC-257 melanoma): 1.18 µM | TGI (UACC-257 melanoma): > 82.9 µM | GI50 (CAKI-1 renal): 0.333 µM | TGI (CAKI-1 renal): > 33.8 µM | GI50 (HOP-62 NSCLC): 0.921 µM | TGI (HOP-62 NSCLC): 10.6 µM
